What was measured:
Type in all cases: cell-based, human
[1] = tested on: F508 del CFTR in CFBE cells at ALI; test: Digital droplet PCR quantification of gene editing; details: apical PNA/DNA NPs, 2 mg/dose, 3 doses
Method: (§1) FIG. 5A is a Schematic of treatment of cells grown at ALI. FIG. 5B is a bar graph showing Ussing Chamber assay results. CFBE cells at ALI were treated apically at 2 mg/dose for 3 doses with 48 hours between each dose **p<0.001; ***p<0.002. FIG. 5C is a dot plot showing digital droplet (ddPCR) quantification of gene editing in genomic DNA isolated from CFBE cells at ALI treated apically at 2 mg/dose for 3 doses with 48 hours between each dose ***p<0.002.
Nanoparticles were suspended in culture media, vortexted, and sonicated in a water bath (30s) and added directly to cells. For cells treated on collagen-coated plastic in 12-well plates, the cells were treated at a concentration of 2 mg/mL. For cells treated in 6-well plates at ALI, the cells were treated apically with 250 uL of media containing 2 mg of particles. […]
gDNA was extracted from CFBE cells using the Wizard SV DNA Purification System (Promega, Madison, Wis.) according to manufacturer's instructions. The concentration of extracted gDNA samples was measured using a QuBit® dsDNA BR assay kit (Invitrogen, Carlsbad, Calif.) according to manufacturer's instructions. […] Droplets were allowed to rest at 4° C. for at least 30 minutes after cycling and were then read using the QX200™ Droplet Reader (Bio-Rad). Data were analyzed using QuantaSoft™ software. […]

[2] = tested on: CFBE cells at ALI; test: Ussing chamber assay, short circuit current; details: apical PBAE/PLGA/MPG NPs, 2 mg/dose, 3 doses
Method: as §1
Ussing experiments were performed as previously described (Bruscia, et al., Proc Natl Acad Sci USA 103, 2965-2970 (2006)). An Easy Mount Ussing Chamber System (Physiologic Instruments) was heated to 37° C. Electrode tips were prepared by partial filling with 3% agar in 3M KCl and subsequently backfilling with a 3M KCl. The Ussing chambers are equipped with current and voltage electrodes loaded with these tips. […] The transepithelial voltage and membrane resistance was measured during each pulse. Under these conditions, short circuit current (Isc) was calculated using Ohm's Law at the timepoint wherein the basolateral chamber was filled with a chloride-free solution following 20 minutes of equilibration in Kreb's Bicarbonate Ringers. […]

[3] = tested on: CFBE cells; test: Comet assay for DNA damage; details: versus untreated cells
Method: FIG. 6 is a bar graph showing the results of a comet assay for DNA damage. TriTek Comet Score FreeWare was used to calculate comet tail moment for each treatment condition. Plots show the average comet tail moment which indicates the extent of DNA damage. Error bars represent the SEM; ****P<0.0001 by unpaired t-test.
50,000 CFBE cells were plated per well in 6-well plates. The following day, the cells were treated with the indicated PNA containing NPs, treated with lipfectamine alone, or transfected with CRISPR-based editing reagents. The next day, cells were collected and prepared using the Trevigen Comet Assay kit per the manufacturer's protocol (Trevigen, Gaithersburg, Md.). Briefly, cells were suspended in agarose and added to comet slides. After the agarose solidified, the slides were incubated for 1 hour in lysis solution, placed in electrophoresis solution for 30 min, then run at 21 V for 1 hour at 4° C. The slides were then placed in acetate solution for 30 min, then incubated in 70% ethanol solution for 30 min. The comet slides were then dried, stained with SYBR Green for 30 min and then visualized using an EVOS microscope. TriTek Comet Score freeware was used to analyze the images. The average comet tail moment was plotted for each condition. Error bars represent the SEM; ****P<0.0001 by unpaired t-test. […]

Row | Substance | gene editing (ddPCR, fractional abundance of edited CFTR allele) [1] | Isc (short circuit current), cAMP stimulated [2] | comet tail moment [3]
1 | H-KKK-TJTJJTTT-OOO-TTTCCTCTATGGGTAAG-KKK-NH2 [hCF PNA] (TNTNNTTTTTTCCTCTATGGGTAAG; listed as DNA, chemistry not fully specified) | minimal correction | minimum Isc | 
2 | H-KKK-TJTJJTTT-OOO-TTTCCTCTATGGGTAAG-KKK-NH2 [γhCF PNA-h] (TNTNNTTTTTTCCTCTATGGGTAAG; listed as DNA, chemistry not fully specified) [tail clamp PNA targeting human CFTR gene with MPγ monomers in Hoogsteen domain] | −5% | marked increase | no significant change in comet tail moment

— patent US20220243211A1, “PEPTIDE NUCLEIC ACID COMPOSITIONS WITH MODIFIED HOOGSTEEN BINDING SEGMENTS AND METHODS OF USE THEREOF” (Yale University, priority 2019, published 2022)
